Measured values as given in PMC12948223, “HSP70 Interactome‐Mediated Proteolysis Targeting Chimera (HSP70‐PROTAC) for Ferroptosis‐Driven Cancer Treatment” (Advanced Science, 2025).
Where two headings read alike, the source gives them in different places.

Key:
GPX4 [1] = molecular target: T1, GPX4 (Homo sapiens, UniProt P36969); assay: GPX4 degradation by western blot in HT1080 cells; format: cell-based; parameters: determine the changes in the endogenous levels of GPX4 by western blot assay; endogenous in cells; host or cells: HT1080 fibrosarcoma cells, including siRNA-knockdown derivatives; conditions: for remaining activity at 0.5 µM: HT-1080, HT1080 cells, read-out: GPX4 % of control; for remaining activity at 1 µM: read-out: % of control (GPX4/GAPDH)
T1 sequence (P36969 1-170 isoform P36969-2): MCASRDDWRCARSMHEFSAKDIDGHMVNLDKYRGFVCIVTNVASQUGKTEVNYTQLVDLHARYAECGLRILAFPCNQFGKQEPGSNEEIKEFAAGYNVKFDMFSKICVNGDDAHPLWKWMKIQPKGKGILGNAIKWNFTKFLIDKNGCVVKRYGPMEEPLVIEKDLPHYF
Summary of the method: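 HT1080 fibrosarcoma cells were treated 24 h with PROTACs at 0.1, 0.3, 1 and 3 µM. Endogenous GPX4 was measured by western blot of RIPA lysates, with band intensities normalized to a loading control.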

GPX4 [2] = molecular target: T1, GPX4; assay: In-cell western (ICW) GPX4 degradation in HT1080 cells; format: cell-based; parameters: determine the changes in the endogenous levels of GPX4 by western blot assay; endogenous in cells; host or cells: HT1080 fibrosarcoma cells, including siRNA-knockdown derivatives; conditions: 24 h
Description: To further confirm this degradation efficacy, an in‐cell western (ICW) assay, a quantitative immunofluorescence cell‐based technique, was performed to quantify the relative expression level of GPX4 after treatment with GDAz‐3 for 24 h. […] Given the promising GPX4 degradation activity of GDAz‐3, we extended our evaluation to additional ferroptosis‐sensitive cell lines, including triple‐negative breast cancer cells (MDA‐MB‐231) and melanoma cells (mouse B16‐F10). […] Based on the observation that GDAz‐3 was particularly effective in HT1080 cells, we selected this cell line for further degradation mechanism and ferroptosis pharmacodynamics studies.
HT1080 cells were seeded into 96‐well plates at a density of 1 × 10⁴ cells per well and cultured overnight. After 24‐h treatment with the drugs, the culture medium was removed, and 150 µL of 4% paraformaldehyde was added to each well to fix the cells at 4 °C for 20 min. The paraformaldehyde was removed, and 150 µL of 0.2% Triton X‐100 was added to each well. The cells were permeabilized by shaking at room temperature for 30 min. After removing the Triton X‐100, 50 µL of 1% BSA buffer was added to each well, and shaken at room temperature for 90 min. […] The PBS was discarded, and the plates were read using a Typhoon biomolecular imager (Cytiva, GPX4: wavelength 680 nm; GAPDH: 800 nm).

COc1ccc(-c2nc(-c3cc(C(F)(F)F)cc(C(F)(F)F)c3)n(Cc3ccc(C(=O)NCCOCCOCCOCCn4cc(COc5ccc(N(C(=O)CCl)C(C(=O)NCCc6ccccc6)c6cccs6)cc5Cl)nn4)cc3)c2-c2ccc(OC)cc2)cc1 (stereo not shown) [GDAz-3, 4-((2-(3,5-bis(trifluoromethyl)phenyl)-4,5-bis(4-methoxyphenyl)-1H-imidazol-1-yl)methyl)-N-(2-(2-(2-(2-(4-((2-chloro-4-(2-chloro-N-(2-oxo-2-(phenethylamino)-1-(thiophen-2-yl)ethyl)acetamido)phenoxy)methyl)-1H-1,2,3-triazol-1-yl)ethoxy)ethoxy)ethoxy)ethyl)benzamide]
GPX4 degradation in wild-type and CRBN- or VHL-knockdown HT1080 cells (GPX4 [1]; 0.5 µM, 24 h): promoted the degradation of GPX4 | GPX4 degradation in BAG3-knockdown cells (GPX4 [1]; BAG3 siRNA HT1080 cells, 24 h): completely abolished | GPX4 degradation in CHIP-knockdown cells (GPX4 [1]; CHIP siRNA HT1080 cells, 24 h): did not induce any detectable protein degradation of GPX4 | Reduction of the GPX4 protein level (GPX4 [1]; HT1080 cells, 0.1 µM, 24 h): ≈ 50% | GPX4 degradation (GPX4 [1]; HT1080 cells, 0.3 µM, 24 h (Figure 3A)): effectively triggered substantial GPX4 degradation | Sustained GPX4 degradation upon washout (GPX4 [1]; HT1080 cells, 1 µM for 24 h, then rinsed with PBS): without obvious recovery even 24 h after removal of the degrader | GPX4 protein level, degradation kinetics (GPX4 [1]; HT1080 cells, 1 µM, 8 h): obviously reduced GPX4 protein level | GPX4 degradation efficiency versus reported GPX4 degraders (GPX4 [1]; HT1080 cells, 1 µM, 24 h): comparable GPX4 degradation efficiency | GPX4 protein level, degradation kinetics (GPX4 [1]; HT1080 cells, 1 µM, 24 h): complete GPX4 depletion | DC50 (GPX4 [1]; HT1080 cells, 24 h): 130 nM | GPX4 degradation effect in combination with 3-methyladenine (3-MA) (GPX4 [1]; HT1080 cells, 24 h): partially rescued | GPX4 degradation effect after proteasome inhibitor (GPX4 [1]; HT1080 cells, MG132 5 µM for 2 h before GDAz-3 for 24 h): completely abrogated | remaining activity at 0.5 µM (GPX4 [1]; GDAz-3 0.5 µM 12 h after pre-treatment with MLN4924 2.5 µM for 2 h): 61% | remaining activity at 0.5 µM (GPX4 [1]; GDAz-3 0.5 µM, 12 h): 45% | remaining activity at 1 µM (GPX4 [1]; HT-1080, HT-1080, 1 µM, 24 h): 45% | remaining activity at 1 µM (GPX4 [1]; HT-1080, HT-1080-siRNA-LAMP2A (LAMP2A knockdown), 1 µM, 24 h): 68% | GPX4 degradation in Hsc70-knockdown cells (GPX4 [1]; Hsc70 siRNA HT1080 cells, 1 µM, 24 h): markedly abrogated | GPX4 degradation in Hsp70-knockdown cells (GPX4 [1]; Hsp70 siRNA HT1080 cells, 24 h): not affected | DC50 (GPX4 [2]): 250 nM
